Results on 1 molecule are retold here after patent US20200237909A1, “METHODS OF TREATING OR PREVENTING BREAST CANCER METASTASES USING ANTIBODIES TO JAGGED1 AND CHEMOTHERAPEUTIC AGENTS” (The Trustees of Princeton University, priority 2017, published 2020).

This assay deals with SCP28. Briefly: CC3 immunofluorescent staining of GFP-positive tumor cells in mouse bone sections. The assay is classed as in vivo, mice. To be noted: after two rounds of treatment. As for the experimental part: FIG. 7. Pro-survival effect of osteoblast Jagged1 on cancer cells can be blocked by 15D11. (A) 3-D tumorsphere culture of MCF7, SCP28, and SUM1315-M1B1 cells, alone or in co-cultured with osteoblast cells, were treated with indicated concentrations of cisplatin or docetaxel. Two days after the chemotherapy, the surviving tumor spheres were counted under the fluorescent microscope. n=3. *p<0.05 by Student's t-test. (B) Cell culture of SCP28 cells alone or in co-culture with MC3T3-E1 pre-osteoblast cells were treated with PBS control or cisplatin. Protein samples were collected at 6 hr, 24 hr, and 72 hr later. Cleaved PARP and cleaved caspase-3 were determined by immunoblotting. # marks full length PARP and * marks cleaved PARP. […] Hind limb bones were fixed and cryo-sectioned for IF staining against CC3 for apoptotic cells and GFP for tumor cells (E), and CC3 positive apoptotic cells among GFP-positive tumor cells were quantified in F. Size bar: 25 μm. n=5. **p<0.01 by Student's t-test. […] Tumor cells in the bone were quantified based on BLI imaging at Day 1 and Day 4. […]
Hindlimb bones were excised from mice at the end point of each experiment, immediately after the last BLI time point. […] For quantitative analysis of lesion area, a 10× objective was used to focus on the tumor region of interest and images were acquired using the AxioCamICc3 camera set to an exposure of around 100 ms. […]

As for `CC(=O)O[C@H]1C(=O)[C@@]2(C)[C@H]([C@H](OC(=O)c3ccccc3)[C@]3(O)C[C@H](OC(=O)[C@H](O)[C@@H](NC(=O)c4ccccc4)c4ccccc4)C(C)=C1C3(C)C)[C@]1(OC(C)=O)CO[C@@H]1C[C@@H]2O` [paclitaxel], the “CC3 positive tumor cells” value is on record as “substantial numbers of tumor cells”.
